30 compounds from patent US9434711B2 (Janssen Pharmaceutica, NV, priority 2007, dated 2016) can be followed below.

Usually IC50 stands for the midpoint of a concentration-inhibition curve.

This experiment has as its target canine TRPM8 (Canis lupus familiaris, UniProt Q1A7N1). Kind of experiment: In Vitro Canine TRPM8 Functional Assay (Ca2+ fluorescence, icilin activation). Conditions: for IC50: HEK293 cells stably expressing canine TRPM8, icilin activation, eight-point dose-response, read-out: IC50; for inhibition at 0.2 µM / % Inh @ 0.2 (μM): compound at 0.2 μM; for inhibition at 0.2 µM / % Inh @ 0.2 (μM) / inhibition at 0.5 µM: canine TRPM8, icilin activation; for inhibition at 0.2 µM: read-out: % Inh @ 0.2; for inhibition at 0.5 µM: compound at 0.5 μM, read-out: % Inh @ 0.5. It counts as cell-based. The method, boiled down: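 Readout is the intracellular Ca2+ fluorescence change, measured by FLIPR or FDSS, in HEK293 cells stably expressing canine TRPM8. Potency (EC50 or IC50) is fitted from eight concentrations averaged over quadruplicate wells.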

Sequence of canine TRPM8 (Q1A7N1 1-1104): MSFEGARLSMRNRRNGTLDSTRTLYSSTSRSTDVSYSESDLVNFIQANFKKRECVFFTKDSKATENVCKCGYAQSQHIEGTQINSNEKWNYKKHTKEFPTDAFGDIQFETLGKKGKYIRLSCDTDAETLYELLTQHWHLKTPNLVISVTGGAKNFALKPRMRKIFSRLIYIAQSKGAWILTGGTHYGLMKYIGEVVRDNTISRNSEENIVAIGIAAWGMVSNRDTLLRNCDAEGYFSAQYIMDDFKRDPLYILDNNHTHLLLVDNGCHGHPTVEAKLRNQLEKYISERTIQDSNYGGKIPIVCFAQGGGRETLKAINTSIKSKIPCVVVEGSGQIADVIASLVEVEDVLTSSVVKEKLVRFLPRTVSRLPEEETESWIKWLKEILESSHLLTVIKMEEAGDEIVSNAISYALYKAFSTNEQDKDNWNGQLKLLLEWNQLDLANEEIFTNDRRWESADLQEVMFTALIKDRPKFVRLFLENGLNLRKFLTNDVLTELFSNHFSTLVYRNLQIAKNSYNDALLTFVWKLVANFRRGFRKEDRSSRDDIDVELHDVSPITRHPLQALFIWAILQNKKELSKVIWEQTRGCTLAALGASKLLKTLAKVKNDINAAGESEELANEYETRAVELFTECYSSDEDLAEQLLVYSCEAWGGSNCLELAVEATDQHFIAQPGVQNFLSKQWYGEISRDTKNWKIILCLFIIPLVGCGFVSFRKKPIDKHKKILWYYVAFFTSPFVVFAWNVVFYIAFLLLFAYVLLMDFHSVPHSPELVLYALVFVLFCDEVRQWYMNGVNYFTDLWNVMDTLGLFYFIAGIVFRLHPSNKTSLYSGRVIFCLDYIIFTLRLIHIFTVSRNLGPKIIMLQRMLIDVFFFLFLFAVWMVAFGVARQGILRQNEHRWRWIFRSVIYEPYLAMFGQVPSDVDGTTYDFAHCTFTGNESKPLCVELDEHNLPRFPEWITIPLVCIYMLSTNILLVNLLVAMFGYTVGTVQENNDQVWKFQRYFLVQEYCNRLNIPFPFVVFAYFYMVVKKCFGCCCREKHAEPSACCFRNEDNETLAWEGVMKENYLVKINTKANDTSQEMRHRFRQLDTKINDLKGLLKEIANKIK

Take `Cc1c(N(Cc2ccc(F)c(C(F)(F)F)c2)S(=O)(=O)c2ccc3c(c2)OCCN3C)sc2ccccc12` [Compound 68, N-(4-Fluoro-3-trifluoromethyl-benzyl)-N-(3-methyl-benzo[b]thiophen-2-yl)-4-methyl-3,4-dihydro-2H-benzo[1,4]oxazine-7-sulfonamide]: the half-maximal inhibitory concentration (IC50) stood at 2 nM and the inhibition at 0.2 µM was found to be 99%.

In the case of `NC1=C(N(CCC2CC2)S(=O)(=O)c2ccccc2)S(=O)(=O)c2ccccc21` [Compound 646, N-(3-Amino-1,1-dioxo-1H-benzo[b]thiophen-2-yl)-N-(2-cyclopropylethyl)-benzenesulfonamide], the inhibition at 0.2 µM turned out to be 55%.

As for `CCS(=O)(=O)N(Cc1ccc(F)c(F)c1)c1sc2ccccc2c1C=O` [Compound 212, N-(3,4-Difluoro-benzyl)-N-(3-formyl-benzo[b]thiophen-2-yl)-ethanesulfonamide], the IC50 worked out at 11.4 nM and the inhibition at 0.2 µM was determined as 101%.

As for `Cc1c(N(Cc2ccc(F)c(C(F)(F)F)c2)S(=O)(=O)c2ccc(Cl)nc2)sc2ccccc12` [Compound 76, N-(4-Fluoro-3-trifluoromethyl-benzyl)-N-(3-methyl-benzo[b]thiophen-2-yl)-6-chloro-pyridine-3-sulfonamide], the IC50 came to 21 nM and the inhibition at 0.2 µM stood at 95%.

As for `CCCCN(c1sc2ccccc2c1Br)S(=O)(=O)c1ccc(C2=NOS(=O)N2)cc1` (stereo not shown) [Compound 484, N-(3-Bromo-benzo[b]thiophen-2-yl)-N-(butyl)-4-(3H-[1,2,3,5]oxathiadiazole-2-oxide)-benzenesulfonamide], the IC50 worked out at 21 nM and the “% Inh @ 0.2 (μM)” value came to 100%.

As to `COCCN(c1sc2ccccc2c1Br)S(=O)(=O)c1ccccc1` [Compound 252, N-(3-Bromo-benzo[b]thiophen-2-yl)-N-(2-methoxy-ethyl)-benzenesulfonamide], the IC50 was found to be 17.1 nM and the inhibition at 0.2 µM is 102%.

In the case of `CNS(=O)(=O)N(Cc1ccc(F)c(C(F)(F)F)c1)c1sc2ccccc2c1Br` [Compound 705, N-(3-Bromo-benzo[b]thiophen-2-yl)-N-(4-fluoro-3-trifluoromethyl-benzyl)-N′-methyl-sulfamide], the IC50 amounted to 19 nM and the inhibition at 0.2 µM was determined as 101%.

With `CCCCN(c1sc2ccccc2c1C)S(=O)(=O)c1ccc(C(=O)O)cc1F` [Compound 593, N-(3-Methyl-benzo[b]thiophen-2-yl)-N-(butyl)-2-fluoro-4-carboxy-benzenesulfonamide], the IC50 came to 7.6 nM and the inhibition at 0.2 µM came to 101%.

`CCCCN(c1sc2ccccc2c1C(=O)N(C)C)S(=O)(=O)c1ccc(C(=O)OC)cc1` [Compound 467, N-(Butyl)-N-(3-dimethyl-carbamoyl-benzo[b]thiophen-2-yl)-4-carbomethoxy-benzenesulfonamide]: the IC50 worked out at 20 nM and the “% Inh @ 0.2 (μM)” value was determined as 100%.

As to `Cc1c(N(Cc2ccc(F)c(C(F)(F)F)c2)S(=O)(=O)c2cccnc2)sc2ccccc12` [Compound 39, N-(4-Fluoro-3-trifluoromethyl-benzyl)-N-(3-methyl-benzo[b]thiophen-2-yl)-pyridine-3-sulfonamide], the half-inhibitory concentration (IC50) came to 3.9 nM and the inhibition at 0.5 µM was found to be 101%.

For `Cc1c(N(CCOC(C)(C)C)S(C)(=O)=O)sc2ccccc12` [Compound 366, N-(2-tert-Butoxy-ethyl)-N-(3-methyl-benzo[b]thiophen-2-yl)-methanesulfonamide], the IC50 is 40 nM and the inhibition at 0.2 µM was determined as 85%.

As to `Cc1c(N(Cc2cccc3cccnc23)S(=O)(=O)c2cn(C)cn2)sc2ccccc12` [Compound 10, N-(3-Methyl-benzo[b]thiophen-2-yl)-N-(quinolin-8-ylmethyl)-1-methyl-1H-imidazole-4-sulfonamide], the IC50 was 229 nM and the inhibition at 0.5 µM stood at 89%.

In the case of `Cc1c(N(Cc2ccc(F)c(F)c2)S(=O)(=O)c2cccc3cccnc23)sc2ccccc12` [Compound 20, N-(3,4-Difluoro-benzyl)-N-(3-methyl-benzo[b]thiophen-2-yl)-quinoline-8-sulfonamide], the IC50 worked out at 6 nM and the inhibition at 0.5 µM turned out to be 98%.

Turning to `CC1=C(N(Cc2ccc(F)c(C(F)(F)F)c2)S(=O)(=O)c2ccccc2)S(=O)(=O)c2ccccc21` [Compound 622, N-(4-Fluoro-3-trifluoromethyl-benzyl)-N-(3-methyl-1,1-dioxo-benzo[b]thiophen-2-yl)-benzenesulfonamide], the IC50 came to 31.3 nM and the inhibition at 0.2 µM amounted to 89%.

For `NS(=O)(=O)N(CCC(F)(F)F)c1sc2ccccc2c1Br` [Compound 304, N-(3-Bromo-benzo[b]thiophen-2-yl)-N-(3,3,3-trifluoro-propyl)-sulfamide], the inhibition at 0.2 µM is 29%.

Consider `Cn1cnc(S(=O)(=O)N(Cc2ccc(F)c(F)c2)c2cc3ccccc3s2)c1` [Compound 130, N-(Benzo[b]thiophen-2-yl)-N-(3,4-difluoro-benzyl)-1-methyl-1H-imidazole-4-sulfonamide], for which the IC50 is 104 nM and the inhibition at 0.5 µM turned out to be 98%.

Turning to `CS(=O)(=O)Nc1ccc(S(=O)(=O)N(CCC(F)(F)F)c2sc3ccccc3c2Br)cc1` [Compound 677, N-(3-Bromo-benzo[b]thiophen-2-yl)-N-(3,3,3-trifluoro-propyl)-4-methanesulfonylamino-benzenesulfonamide], the IC50 worked out at 24.6 nM and the inhibition at 0.2 µM was 101%.

Consider `Cc1c(N(Cc2ccc(OC(F)(F)F)cc2)S(=O)(=O)c2nc3ccccc3n2C)sc2ccccc12` [Compound 746, N-(3-Methyl-benzo[b]thiophen-2-yl)-N-(4-trifluoromethoxy-benzyl)-1-methyl-1H-benzimidazole-2-sulfonamide], for which the inhibition at 0.2 µM was found to be 31%.

Regarding `O=C(O)c1ccc(S(=O)(=O)N(Cc2ccc(F)c(C(F)(F)F)c2)c2sc3ccccc3c2Cl)cc1` [Compound 294, N-(3-Chloro-benzo[b]thiophen-2-yl)-N-(4-fluoro-3-trifluoromethyl-benzyl)-4-carboxy-benzenesulfonamide], the IC50 came to 1.8 nM and the inhibition at 0.2 µM turned out to be 99%.

With `CC(=O)c1c(N(Cc2ccc(F)c(Cl)c2)S(=O)(=O)c2ccc(Br)cc2)sc2ccccc12` [Compound 733, N-(3-Acetyl-benzo[b]thiophen-2-yl)-4-bromo-N-(3-chloro-4-fluoro-benzyl)benzenesulfonamide], the IC50 came to 13.4 nM and the inhibition at 0.2 µM is 100%.

For `CCCCN(c1sc2ccccc2c1Cl)S(=O)(=O)c1ccc(N2CCOCC2)cc1` [Compound 562, N-(3-Chloro-benzo[b]thiophen-2-yl)-N-(butyl)-4-morpholin-4-yl-benzenesulfonamide], the IC50 was determined as 33.1 nM and the inhibition at 0.2 µM was 103%.

With `Cc1c(N(Cc2ccc(F)c(F)c2)S(=O)(=O)c2ccc3ncccc3c2)sc2ccccc12` [Compound 30, N-(3,4-Difluoro-benzyl)-N-(3-methyl-benzo[b]thiophen-2-yl)-quinoline-6-sulfonamide], the IC50 turned out to be 12 nM and the inhibition at 0.5 µM was determined as 100%.

Consider `CC(C)c1c(N(Cc2ccc(F)c(C(F)(F)F)c2)S(=O)(=O)c2ccccc2)sc2ccccc12` [Compound 547, N-(4-Fluoro-3-trifluoromethyl-benzyl)-N-(3-isopropyl-benzo[b]thiophen-2-yl)-benzenesulfonamide], for which the IC50 came to 7.4 nM and the inhibition at 0.2 µM was determined as 105%.

For `O=C(O)c1ccccc1S(=O)(=O)N(Cc1ccc(F)c(C(F)(F)F)c1)c1sc2ccccc2c1Cl` [Compound 297, N-(3-Chloro-benzo[b]thiophen-2-yl)-N-(4-fluoro-3-trifluoromethyl-benzyl)-2-carboxy-benzenesulfonamide], the inhibition at 0.2 µM was found to be 21%.

For the compound `O=[N+]([O-])c1cccc(CN(c2cc3ccccc3s2)S(=O)(=O)c2ccccc2)c1` [Compound 51, N-(Benzo[b]thiophen-2-yl)-N-(3-nitro-benzyl)-benzenesulfonamide], the IC50 turned out to be 78 nM and the inhibition at 0.5 µM was found to be 98%.

Consider `COC(=O)c1ccc(S(=O)(=O)N(Cc2ccc(F)c(C(F)(F)F)c2)c2sc3ccccc3c2C2CCC2)cc1` [Compound 696, N-(3-Cyclobutyl-benzo[b]thiophen-2-yl)-N-(4-fluoro-3-trifluoromethyl-benzyl)-4-carbomethoxy-benzenesulfonamide], for which the IC50 was 23 nM and the inhibition at 0.2 µM was 97%.

As for `NS(=O)(=O)N(Cc1ccc(F)c(C(F)(F)F)c1)c1sc2ccccc2c1Cl` [Compound 302, N-(3-Chloro-benzo[b]thiophen-2-yl)-N-(4-fluoro-3-trifluoromethyl-benzyl)-sulfamide], the inhibition at 0.2 µM was found to be 50%.

`Cc1c(N(Cc2ccc(F)c(C(F)(F)F)c2)S(=O)(=O)CCC(=O)O)sc2ccccc12` [Compound 510, N-(4-Fluoro-3-trifluoromethyl-benzyl)-N-(3-methyl-benzo[b]thiophen-2-yl)-2-carboxy-ethanesulfonamide]: the concentration for half-maximal inhibition (IC50) turned out to be 11 nM and the inhibition at 0.2 µM was 102%.

Take `CS(=O)(=O)Nc1cccc(S(=O)(=O)N(CCC(F)(F)F)c2sc3ccccc3c2Cl)c1` [Compound 714, N-(3-Chloro-benzo[b]thiophen-2-yl)-3-methanesulfonylamino-N-(3,3,3-trifluoro-propyl)-benzenesulfonamide]: the concentration for half-maximal inhibition (IC50) came to 29 nM and the inhibition at 0.2 µM came out at 96%.

Consider `CCS(=O)(=O)N(Cc1ccc(F)c(F)c1)c1sc2ccccc2c1CO` [Compound 219, N-(3,4-Difluoro-benzyl)-N-(3-hydroxymethyl-benzo[b]thiophen-2-yl)-ethanesulfonamide], for which the IC50 is 7.8 nM and the inhibition at 0.2 µM was found to be 101%.
